Test results published in US20230255972A1, “PYRIMIDINE COMPOUND-CONTAINING COMBINATION TO BE USED IN TUMOR TREATMENT” (TAIHO PHARMACEUTICAL CO., LTD., priority 2020, published 2023).

What was measured:
[1] = tested on: MCF10A_EGFR/V769_D770insASV cells; assay: Growth inhibitory activity against MCF10A_EGFR/V769_D770insASV; format: cell-based; conditions: Homo sapiens, 72 h; 3 days; read-out: Cell growth inhibitory activity GI 50 value, MCF10A_EGFR/V769_D770insASV cell
Description: Test Example 7 Measurement of Growth Inhibitory Activity Against EGFR Overexpressing Cell Line and Exon 20 Insertion Mutant EGFR Expressing Cell Line
Growth inhibitory activity against an EGFR overexpressing cell line and an exon 20 insertion mutant EGFR expressing cell line was evaluated using MDA-MB-468 cells (ATCC) as an EGFR overexpressing human breast cancer cell line; NCI-H1975 cells (ATCC) as L858R and T790M mutant EGFR-positive human lung cancer cells; and MCF10A_EGFR cells, MCF10A_EGFR/V769_D770insASV cells, MCF10A_EGFR/D770_N771insSVD cells, and MCF10A_EGFR/H773_V774insNPH cells (Fukushima Medical University) which were cells obtained by introducing the EGFR gene (WT, […], D770_N771insSVD mutant, H773_V774insNPH mutant) into MCF10A cells as human normal mammary gland cells.
The MDA-MB-468 cells were suspended in Leibovitz's L-15 medium containing 10% inactivated fetal bovine serum. The NCI-H1975 cells were suspended in RPMI-1640 medium containing 10% inactivated fetal bovine serum. The MCF10A_EGFR cells, the MCF10A_EGFR/V769_D770insASV cells, the MCF10A_EGFR/D770_N771insSVD cells, or the MCF10A_EGFR/H773_V774insNPH cells were suspended in DMEM/Ham's F-12 medium (containing L-glutamine, phenol red, HEPES, and sodium pyruvate) containing 10 μg/mL insulin, 500 ng/mL hydrocortisone, 5 μmol/L forskolin, and 5% inactivated horse serum in terms of their final concentrations. Each cell suspension was seeded in each well of a 96-well flat-bottom plate such that the number of cells per well was 500, and was then cultured in a carbon dioxide gas-free culture vessel for the MDA-MB-468 cells and in a 5% carbon dioxide gas-containing culture vessel for the other cells at 37° C. for 1 day. The pyrimidine compound of the present invention was prepared at 1 mM in DMSO and then diluted 1/200 with a medium to prepare a 5 μM solution. […]
The cells at the start of the culture (day 0) and after the culture (day 3) were counted using CellTiter-Glo(R) 2.0 Reagent (Promega Corp.) according to the protocol recommended by the manufacturer. […]

[2] = target: T1, human HER2 exon 20 insertion mutant (A775_G776insYVMA) protein (Homo sapiens, UniProt P04626, INS775YVMA); assay: Inhibitory action (in vitro) against HER2 exon 20 insertion mutant phosphorylation activity; format: biochemical; conditions: pre-incubated 30 minutes, ATP 200 μM, 25°C, 220 minutes; read-out: HER2ex20insYVMA inhibitory activity IC50 value
T1 construct: purchased SignalChem
Description: Test Example 2 Measurement of Inhibitory Action (In Vitro) Against HER2 Exon 20 Insertion Mutant (HER2ex20insYVMA) Phosphorylation Activity
In order to determine conditions for a method of measuring the in vitro inhibitory activity of a compound against HER2 exon 20 insertion mutant phosphorylation activity, as in the case of HER2, ProfilerPro Peptide 22 was used as a substrate. A purified recombinant human HER2 exon 20 insertion mutant (A775_G776insYVMA) protein was purchased from SignalChem. Upon the measurement of the inhibitory activity of the compound, first, the pyrimidine compound of the present invention was diluted stepwise with dimethyl sulfoxide (DMSO). Subsequently, the HER2 exon 20 insertion mutant protein and the pyrimidine compound of the present invention in DMSO solution (final concentration of DMSO: 5%) were added into a buffer for the kinase reaction (13.5 mM Tris (pH 7.5), 2 mM dithiothreitol, and 0.009% Tween 20), and the obtained mixture was then pre-incubated at 25° C. for 30 minutes. Thereafter, the substrate peptide (final concentration: 1 μM), manganese chloride (final concentration: 25 mM), magnesium chloride (final concentration: 20 mM), and ATP (final concentration: 200 μM) were added into the reaction mixture, and the thus obtained mixture was then incubated at 25° C. for 220 minutes, so that the kinase reaction was carried out. To the reaction solution, EDTA was added to a final concentration of 30 mM, so as to terminate the reaction. Finally, using LabChip (registered trademark) EZ Reader II (PerkinElmer), an unphosphorylated substrate peptide (S) and a phosphorylated peptide (P) were separated and detected according to microchannel capillary electrophoresis.

[3] = tested on: H1975-EGFRinsSVD cell line; assay: Antitumor effect (in vivo) on subcutaneous transplantation models of H1975-EGFRinsSVD; parameters: species or system nude mouse; conditions: Days 1-14
Description: Test Example 12 Antitumor Effect Confirmation Test (In Vivo) on Subcutaneous Transplantation Models, into which H1975-EGFRinsSVD Cell Line is Transplanted
The test compound used was the compounds of Examples 2, 11, and 12, and a 0.5% HPMC aqueous solution was used as a control. The compounds of Examples 2, 11 and 12 were orally administered at doses of 25 mg/kg/day, 25 mg/kg/day and 50 mg/kg/day, respectively.
To compare the transition of tumor growth over time by the administration of each test compound, a tumor volume (which is also referred to as “TV” below) was measured at a frequency of twice a week over time. […] A body weight change percentage is also referred to as “BWC” below.
BWCn (%)=((body weight on n^th day)−(body weight on grouping day)]/[(body weight on grouping day)×100

T1 sequence (P04626 with tags, fused parts or gaps INS775YVMA limits assumed): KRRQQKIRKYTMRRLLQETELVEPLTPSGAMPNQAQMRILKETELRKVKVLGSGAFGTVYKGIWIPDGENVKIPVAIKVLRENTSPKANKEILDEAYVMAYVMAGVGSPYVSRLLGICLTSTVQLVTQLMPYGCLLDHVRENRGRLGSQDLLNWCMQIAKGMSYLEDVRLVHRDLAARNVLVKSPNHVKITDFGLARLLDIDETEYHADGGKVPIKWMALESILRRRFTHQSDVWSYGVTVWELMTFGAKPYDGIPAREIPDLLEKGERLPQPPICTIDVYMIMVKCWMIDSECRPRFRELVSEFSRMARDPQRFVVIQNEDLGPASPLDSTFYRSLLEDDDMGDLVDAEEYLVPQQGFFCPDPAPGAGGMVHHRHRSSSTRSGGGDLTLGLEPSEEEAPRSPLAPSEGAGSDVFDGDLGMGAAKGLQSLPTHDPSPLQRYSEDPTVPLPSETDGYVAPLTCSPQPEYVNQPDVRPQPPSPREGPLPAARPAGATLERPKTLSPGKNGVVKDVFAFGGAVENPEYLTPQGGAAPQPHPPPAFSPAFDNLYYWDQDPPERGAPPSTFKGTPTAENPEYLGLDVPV

Row | Compound | GI50 [1] [nM] | IC50 [2] [nM] | body weight reduction of 20% or more ([3]; 25 mg/kg/day po) | body weight reduction of 20% or more ([3]; 50 mg/kg/day po)
1 | C=CC(=O)N1C[C@H](n2c(C#CC)c(C(=O)N[C@H](C)c3ccccc3)c3c(N)ncnc32)C[C@@H]1C [Example 2, 7-((3R,5S)-1-acryloyl-5-methylpyrrolidin-3-yl)-4-amino-N—((R)-1-phenylethyl)-6-(prop-1-yn-1-yl)-7H-pyrrolo[2,3-d]pyrimidine-5-carboxamide] | 6.7 | < 0.3 | not observed | 
2 | C=CC(=O)N1C[C@H](n2c(C#CC3CC3)c(C(=O)N[C@H](C)c3ccccc3)c3c(N)ncnc32)C[C@@H]1C [Example 11, 7-((3R,5S)-1-acryloyl-5-methylpyrrolidin-3-yl)-4-amino-6-(cyclopropylethynyl)-N—((R)-1-phenylethyl)-7H-pyrrolo[2,3-d]pyrimidine-5-carboxamide] | 7.3 | < 0.3 | not observed | 
3 | C=CC(=O)N1C[C@H](n2c(C#CC(C)(C)C)c(C(=O)N[C@H](C)c3ccccc3)c3c(N)ncnc32)C[C@@H]1C [Example 12, 7-((3R,5S)-1-acryloyl-5-methylpyrrolidin-3-yl)-4-amino-6-(3,3-dimethylbut-1-yn-1-yl)-N—((R)-1-phenylethyl)-7H-pyrrolo[2,3-d]pyrimidine-5-carboxamide] | 24 | 0.39 |  | not observed
